Common to all, as to type: cell-based, human
Assay [1] concerns HL-60 cells. Nature of the assay: Total and glycoside bound sialic acids by periodate-resorcinol assay. Conditions: 100 μM, 48 h. Here is the method:
Total sialic acids were measured following reported procedures. HL-60 cells (3.0×10^5 cells/mL in 10 mL complete medium in 10 cm diameter Petri dishes) were incubated with D, 1a, 1b, 1c, 1d, 1e, 1f, 1g, 2a, or 2b (100 mM each), along with untreated (U) controls. After 48 h, cells were harvested, washed with PBS (3×5.0 mL; 3000×g, for 2.0 min), aliquoted to 2×10^6 cells per sample and resuspended in PBS (150 mL) in 1.5 mL microcentrifuge tubes. Cells were lyzed by three freeze-thaw cycles and the total lysates were subjected to periodate-resorcinol assay. Briefly, lysates (150 mL) were treated with 0.4 M aqueous periodic acid (6.67 mM) or (2.5 mL) and incubated either on ice for 15 min (for measurement of total sialic acids) or at 37° C. for 1.0 h (for measurement of glycoconjugate bound sialic acids). About 10 mL of reagent cocktail was prepared using 6% w/v of aqueous resorcinol (1.0 mL), 2.5 mM copper (II) sulfate (1.0 mL), 44% of concentrated hydrochloric acid (4.4 mL), and water (3.6 mL). The mixture was then treated with the reagent cocktail (250 mL per sample), boiled at 100° C. for 10 min, rapidly quenched in an ice-bath and treated with tert-butanol (250 mL). The contents were centrifuged and the supernatants were aliquoted (200 mL) into 96-well plates and the absorbance at 630 nm was measured. At least three replicates were prepared for each condition.

Assay [2] deals with HL-60 cells. Nature of the assay: Western blot of total lysates for sLeX (CSLEX1) epitopes. The following applies: HL-60 total lysates; 50 μM, 72 h. As for the experimental part:
Effect of ManNAc analogues on expression of CD15s epitopes: HL-60 cells (3.0×10^5 cells/mL in 10 mL complete medium in 10 cm diameter petri dishes) were incubated with D, 1a, 1b, 1d, 1e, 1f, or 1g (50 mM), along with untreated (U) controls. After 72 h, cells were harvested, washed with PBS (3×5.0 mL), and lysed in RIPA buffer (10^7 cells in […]), containing protease inhibitor cocktail (PIC, 1:100). Protein concentration of the soluble fraction was estimated using the Bradford assay. Proteins from total lysates were resolved by 7.5% SDS-PAGE and blotted onto nitrocellulose membrane (constant current of 250 mA for 3.0 h at 4° C.). Membranes were blocked using non-fat milk (NFM) (5.0% w/v) in PBS and incubated with primary antibodies (5.0 mL PBS containing 5.0% NFM) overnight at 4° C. Membranes were washed with 0.1% PBS-T (0.1% v/v tween-20 in PBS; 3×5.0 mL, five min each at room temperature) followed by incubation with appropriate fluorophore or horse radish peroxidase (HRP) conjugated secondary antibodies for 1.0 h at room temperature. Membranes were washed with 0.1% PBS-T (3×5.0 mL, five min each) and then either directly scanned using Amersham Typhoon fluorescence scanner or developed on photographic films after treatment with enhanced chemiluminescence reagents. At least two independent replicate experiments were performed for all the blots.
The primary and secondary antibodies employed, along with dilution and stock concentration, are given below: Primary antibodies: Anti-CD15s (CSLEX1; IgM, dilution 1:5000; stock concentration 0.5 mg/mL) Anti-CLA (HECA452; IgM, dilution 1:1000, stock concentration 0.5 mg/mL) […] (AC15, IgG, dilution 1:20000, stock concentration 2.2 mg/mL); and Secondary Antibodies: AlexaFluor488-conjugated anti-mouse IgM (1:10000, stock concentration 2.0 mg/mL) AlexaFluor488-conjugated anti-rat IgM (1:10000, stock concentration 0.5 mg/mL) HRP-conjugated anti-mouse IgG (1:10000, stock concentration 0.8 mg/mL) Cy5-conjugated donkey anti-mouse IgG (1:10000, stock concentration 1.4 mg/mL) AlexaFluorplus488-conjugated anti-mouse IgG (1:10000, stock conc. 2.0 mg/mL).
On the technique in general: Immunoblotting shows a protein as a band on a membrane.

The subject of assay [3] is HL-60 cells. Nature of the assay: Binding of mouse E-selectin-Fc chimera (mCD62E) to cells by flow cytometry. Conditions: 50 μM, 72 h. Here is the method:
Effect of HexNAc analogues on the expression of E-selectin ligands: HL-60 cells (3.0×10^5 cells/mL in 2.5 mL complete medium in 6-well plates) were incubated with D, 1a, 1b, or 1d (50 mM), along with untreated controls. After 72 h, cells were harvested and washed with PBS (3×0.5 mL). Prior to the last wash, cells were counted and aliquoted into 5.0×10^5 cells per sample. Cells were stained with mCD62E-Fc chimera protein (10 mg/mL) in PBS (50 mL) at 4° C. After 1.0 h, cells were washed with PBS (2×0.5 mL) and stained with PEconjugated F(ab′)2 goat anti-human Fc in PBS (50 mL) at 4° C. After 1.0 h, cells were washed with PBS (2×0.5 mL) and resuspended in 0.85% saline (0.2 mL) containing Sytox Red (dilution 1:1000; stock concentration of 5.0 mM). Additionally, control samples of cells treated with only the secondary antibody were prepared. Two replicate samples were analyzed for each condition and each sample was counted twice by flow cytometry as mentioned above.
In general terms: In flow cytometry, cells or beads pass a laser one at a time.

The subject of assay [4] is HL-60 cells. Nature of the assay: Far-western blot of total lysates with biotinylated MAL-II. Conditions: HL-60 lysates; 50 μM, 72 h. As for the experimental part:
After 72 h, cells were harvested and lyzed in RIPA buffer containing PIC. Protein concentration in the soluble fraction was estimated using Bradford assay, subjected to 10% SDS-PAGE, blotted onto nitrocellulose membranes (constant current 250 mA, 3 h, 4° C.). Membranes were blocked using 2% w/v gelatin (5.0 mL) in 0.1% PBS-T at room temperature. After 1h, membranes were incubated with either bMAL-II (1:2000, stock conc. 1.0 mg/mL) or bSNA (1:5000, stock conc. 2.0 mg/mL) in 0.1% PBS-T (5.0 mL) at room temperature. After 1 h, membranes were washed using 0.1% PBS-T (6×5.0 mL, 5.0 min), followed by incubation with HRPconjugated avidin (1:50000, stock conc. 2.0 mg/mL) in 0.1% PBS-T (5.0 mL). After 30 min, membranes were washed using 0.1% PBS-T (6×5.0 mL, 5.0 min). Blots were developed using enhanced chemiluminescence substrate and photographic films. Blots using anti-β-actin (as mentioned above) were performed in parallel as loading controls. At least two independent replicate experiments were performed.

The test system of assay [5] is HL-60 cells. As to the kind of experiment: SNA lectin binding on intact cells by flow cytometry. The following applies: 50 μM, 24 h.

Entries after “also recorded” stand apart in the source; their conditions may differ.

For `CC(=O)OC[C@H]1O[C@H](OC(C)=O)[C@@H](NC(=O)C2CC2)[C@@H](OC(C)=O)[C@@H]1OC(C)=O` [Compound 1a, 1,3,4,6-tetra-O-acetyl-2-cyclopropanoylamino-2-deoxy-α-D-mannopyranose], in the assay on HL-60 cells [1], the “decrease in glycoside bound sialic acid levels” value is reported as roughly 10% and the “ratio of total sialic acids to glycoside bound sialic acids vs untreated cells” value is given as “higher ratios of free sialic acid”. Besides, the “sLeX (CSLEX1) bands between 150-100 kDa in western blot” value (shortened to “sLeX”) in the assay on HL-60 cells [2] is given as “faint increase”. Besides, the “change in mCD62E binding with respect to untreated cells (in words)” value in the assay on HL-60 cells [3] is given as “no significant change”. Also, the “MAL-II epitopes in lectin blot” value in the assay on HL-60 cells [4] is “slight increase”. For the same molecule, the “SNA binding on intact cells compared to untreated cells” value with HL-60 cells [5] was “no significant differences”.

Turning to `CC(=O)OC[C@H]1OC(OC(C)=O)[C@@H](NC(=O)C2CCC2)[C@@H](OC(C)=O)[C@@H]1OC(C)=O` (stereo partly drawn) [Compound 1b, (3S,4R,5S,6R)-6-(acetoxymethyl)-3-(cyclobutanecarboxamido)tetrahydro-2H-pyran-2,4,5-triyl triacetate], in the assay with HL-60 cells [1], the “decrease in glycoside bound sialic acid levels” value is listed as roughly 10% and the “ratio of total sialic acids to glycoside bound sialic acids vs untreated cells” value was “higher ratios of free sialic acid”. Also, the “sLeX” value in the assay on HL-60 cells [2] was “Robust increase”. In addition, the “increase in mCD62E (E-selectin-Fc) binding with respect to untreated cells” value in the assay on HL-60 cells [3] came out at 2.3 fold. For the same molecule, the “MAL-II epitopes in lectin blot” value in the assay with HL-60 cells [4] is reported as “slight increase”. Also, the “SNA binding on intact cells compared to untreated cells” value in the assay on HL-60 cells [5] is “no significant differences”.

As to `CC(=O)NC1C(OC(C)=O)OC(COC(C)=O)[C@@H](OC(C)=O)[C@@H]1OC(C)=O` (stereo partly drawn) [Compound 1d, 1,3,4,6-tetra-O-acetyl-2-acetylamino-2-deoxy-α/β-D-mannopyranose], in the assay with HL-60 cells [1], the “increase in glycoside bound sialic acid levels” value is roughly 10%, the “increase in total sialic acid levels vs untreated cells” value turned out to be 2.0 fold and the “ratio of total sialic acids to glycoside bound sialic acids vs untreated cells” value is “higher ratios of free sialic acid”. Also, in the assay on HL-60 cells [2], the “sLeX” value is “negative for sLeX epitopes; also recorded: not detectable”. Further, the “change in mCD62E binding with respect to untreated cells (in words)” value in the assay on HL-60 cells [3] is listed as “no significant change”. In addition, the “MAL-II epitopes in lectin blot” value with HL-60 cells [4] is reported as “below detection limit”. Besides, the “SNA binding on intact cells compared to untreated cells” value with HL-60 cells [5] was “no significant differences”.

The record behind these values is patent US20240002424A1, “HEXOSAMINE COMPOUNDS AND METHODS THEREOF” (National Institute of Immunology, priority 2021, published 2024).
